Data taken from article PMC9504056, “A Novel L-Phenylalanine Dipeptide Inhibits the Growth and Metastasis of Prostate Cancer Cells via Targeting DUSP1 and TNFSF9” (International Journal of Molecular Sciences, 2022).

Tests used:
[1] = target: T1, DUSP1 (Homo sapiens, UniProt P28562); assay: cellular thermal shift assay (CETSA), Western blot; type: cell-based; details: PC3 cells treated 2 h with 0.01-100 µmol/L; heated at 53 °C for 3 min
T1 construct: endogenous protein in human PC3 prostate cancer cells, detected by Western blot (Abcam ab61201)
T1 sequence (P28562 1-367): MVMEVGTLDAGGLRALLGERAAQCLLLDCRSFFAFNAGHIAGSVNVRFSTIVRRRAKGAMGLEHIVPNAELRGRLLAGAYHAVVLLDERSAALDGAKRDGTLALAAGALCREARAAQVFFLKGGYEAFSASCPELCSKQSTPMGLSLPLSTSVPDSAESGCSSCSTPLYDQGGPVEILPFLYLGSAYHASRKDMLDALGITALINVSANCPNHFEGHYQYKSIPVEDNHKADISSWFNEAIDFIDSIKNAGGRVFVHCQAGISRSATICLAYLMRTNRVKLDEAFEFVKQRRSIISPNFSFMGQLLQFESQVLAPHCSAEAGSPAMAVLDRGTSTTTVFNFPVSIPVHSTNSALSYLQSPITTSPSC

[2] = target: T2, TNFSF9 (Homo sapiens, UniProt P41273); assay: cellular thermal shift assay (CETSA), Western blot; type: cell-based; details: PC3 cells treated 2 h with 0.01-100 µmol/L; heated at 53 °C for 3 min
T2 construct: endogenous protein in human PC3 prostate cancer cells, detected by Western blot (Abcam ab68185)
T2 sequence (P41273 whole entry): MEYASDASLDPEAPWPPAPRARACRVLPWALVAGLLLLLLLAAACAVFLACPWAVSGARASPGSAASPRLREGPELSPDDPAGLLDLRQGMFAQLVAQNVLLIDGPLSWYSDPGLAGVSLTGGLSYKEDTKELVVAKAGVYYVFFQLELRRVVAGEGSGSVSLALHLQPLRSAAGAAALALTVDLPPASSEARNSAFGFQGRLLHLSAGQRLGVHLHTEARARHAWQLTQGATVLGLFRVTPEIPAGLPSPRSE

## CCN(CC)CCOc1ccc(C[C@H](NC(=O)c2ccc(OCc3ccccc3)cc2)C(=O)N[C@H](CO)Cc2ccccc2)cc1 [HXL131]
[1]
  cellular thermal shift assay (CETSA), Western blot: HXL131 could stably bind DUSP1 and TNFSF9 proteins
[2]
  cellular thermal shift assay (CETSA), Western blot: HXL131 could stably bind DUSP1 and TNFSF9 proteins
